Assays:
α-glucosidase [1] = target: T1, α-glucosidase (Saccharomyces cerevisiae, UniProt P53341); assay: α-Glucosidase inhibitory assay; assay type: biochemical
α-glucosidase [2] = target: T1, α-glucosidase; assay: Kinetic studies; assay type: biochemical; conditions: for type of inhibition: Lineweaver-Burk plots, Km increases, Vmax constant

T1 sequence (P53341 whole entry): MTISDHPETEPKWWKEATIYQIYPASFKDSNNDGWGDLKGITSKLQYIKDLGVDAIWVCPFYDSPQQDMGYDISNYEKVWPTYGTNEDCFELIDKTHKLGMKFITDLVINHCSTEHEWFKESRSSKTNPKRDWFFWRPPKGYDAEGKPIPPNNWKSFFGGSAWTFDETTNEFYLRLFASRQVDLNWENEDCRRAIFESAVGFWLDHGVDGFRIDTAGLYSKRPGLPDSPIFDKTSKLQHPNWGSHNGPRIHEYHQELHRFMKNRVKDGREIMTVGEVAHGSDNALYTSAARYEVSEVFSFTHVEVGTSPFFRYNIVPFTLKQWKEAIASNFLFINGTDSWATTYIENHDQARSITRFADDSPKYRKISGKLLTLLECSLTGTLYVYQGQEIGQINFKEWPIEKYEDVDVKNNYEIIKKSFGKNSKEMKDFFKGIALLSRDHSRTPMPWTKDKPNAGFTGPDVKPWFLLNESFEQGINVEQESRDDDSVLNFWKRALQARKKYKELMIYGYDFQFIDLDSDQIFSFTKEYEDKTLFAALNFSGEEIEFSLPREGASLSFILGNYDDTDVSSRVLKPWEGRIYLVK

IC50 (α-glucosidase [1]) [nM]	Ki (α-glucosidase [2]) [nM]	type of inhibition (α-glucosidase [2])	Structure (SMILES)
680 ± 290			CN(C)c1ccc(C(=NN=Cc2ccc(O)cc2O)c2ccc(N(C)C)cc2)cc1 [Compound 2, 4-{[bis-(4-dimethylamino-phenyl)-methylene]-hydrazonomethyl}-benzene-1,3-diol]
330			CN(C)c1ccc(C(=NN=Cc2cccc(O)c2O)c2ccc(N(C)C)cc2)cc1 [Compound 4, 3-{[bis-(4-dimethylamino-phenyl)-methylene]-hydrazonomethyl}-benzene-1,2-diol]
280	2790 ± 11	competitive	CN(C)c1ccc(C(=NN=Cc2cc([N+](=O)[O-])ccc2O)c2ccc(N(C)C)cc2)cc1 [Compound 8, 2-{[bis-(4-dimethylamino-phenyl)-methylene]-hydrazonomethyl}-4-nitro-phenol]
280	3640 ± 12	competitive	COc1cccc(C=NN=C(c2ccc(N(C)C)cc2)c2ccc(N(C)C)cc2)c1O [Compound 9, 2-{[bis-(4-dimethylamino-phenyl)-methylene]-hydrazonomethyl}-6-methoxy-phenol]
490 ± 1430			CN(C)c1ccc(C(=NN=Cc2cccc(C=O)c2)c2ccc(N(C)C)cc2)cc1 [Compound 15, 3-{[bis-(4-dimethylamino-phenyl)-methylene]-hydrazonomethyl}-benzaldehyde]
350			CN(C)c1ccc(C(=NN=Cc2ccc(O)c(O)c2)c2ccc(N(C)C)cc2)cc1 [Compound 17, 4-{[bis-(4-dimethylamino-phenyl)-methylene]-hydrazonomethyl}-benzene-1,2-diol]
820 ± 1120			CN(C)c1ccc(C(=NN=Cc2ccc(O)cc2)c2ccc(N(C)C)cc2)cc1 [Compound 26, 4-{[bis-(4-dimethylamino-phenyl)-methylene]-hydrazonomethyl}-phenol]
